From patent US20240425891A1, “Host cells and methods for improved polyketide production using methylmalonyl-CoA-dependent polyketide synthase (PKS)” (THE REGENTS OF THE UNIVERSITY OF CALIFORNIA, priority 2023, published 2024)

Key:
C. glutamicum Cz034 = test: Propionate tolerance of Cz034 in CGXII minimal medium (growth curve); assay type: cell-based, Corynebacterium glutamicum
Experimental: Propionate tolerance was first evaluated using Cz034 in CGXII minimal medium to evaluate the highest propionate concentration for ALE. The lag phase increased as the propionate concentration increased, and no growth was observed when the propionate concentration was over 8,000 mg/L (Extended Data FIG. S11a, b). Then, ALE was applied to improve propionate tolerance and germicidin production in Cz12 by repeatedly growing the strains in increasing concentrations of propionate until we reached 8,000 mg/L (Extended Data FIG. S12). After two months of evolution, 563 single colonies were picked up from plates. Most of them grew faster than the initial strain (Extended Data FIG. S13a, b, c, d). […] To clarify whether the increased germicidin production improved methylmalonyl-CoA utilization, germicidin titer was measured on evolved strains.
Colony PCR. Pick up colonies from plate and cultivate in BHI medium (30° C., 200 rpm) overnight (around 14-16 h). Prepare digestion solution (120 μL zymolase (E1005, ZYMO RESEARCH) and 2500 μL PBS pH=7.2) for 96 reactions. Take 3-5 μL overnight culture into 20 μL digestion solution, 30° C. for 1 h. Add 3-5 μL dimethyl sulfoxide (DMSO), then 98° C. for 10 min. Take 2 μL for 50 μL PCR reaction. Growth curve measurement. Various cells were pre-cultivated in BHI liquid medium (30° C., 200 rpm) overnight. […] Growth curve was measured by SpectraMaX M2e at 30° C.

hexokinase (HK2) = target: T1, hexokinase (HK2) (Homo sapiens, UniProt P52789); conditions: literature reference 36; cited from earlier work
T1 sequence (P52789 1-917): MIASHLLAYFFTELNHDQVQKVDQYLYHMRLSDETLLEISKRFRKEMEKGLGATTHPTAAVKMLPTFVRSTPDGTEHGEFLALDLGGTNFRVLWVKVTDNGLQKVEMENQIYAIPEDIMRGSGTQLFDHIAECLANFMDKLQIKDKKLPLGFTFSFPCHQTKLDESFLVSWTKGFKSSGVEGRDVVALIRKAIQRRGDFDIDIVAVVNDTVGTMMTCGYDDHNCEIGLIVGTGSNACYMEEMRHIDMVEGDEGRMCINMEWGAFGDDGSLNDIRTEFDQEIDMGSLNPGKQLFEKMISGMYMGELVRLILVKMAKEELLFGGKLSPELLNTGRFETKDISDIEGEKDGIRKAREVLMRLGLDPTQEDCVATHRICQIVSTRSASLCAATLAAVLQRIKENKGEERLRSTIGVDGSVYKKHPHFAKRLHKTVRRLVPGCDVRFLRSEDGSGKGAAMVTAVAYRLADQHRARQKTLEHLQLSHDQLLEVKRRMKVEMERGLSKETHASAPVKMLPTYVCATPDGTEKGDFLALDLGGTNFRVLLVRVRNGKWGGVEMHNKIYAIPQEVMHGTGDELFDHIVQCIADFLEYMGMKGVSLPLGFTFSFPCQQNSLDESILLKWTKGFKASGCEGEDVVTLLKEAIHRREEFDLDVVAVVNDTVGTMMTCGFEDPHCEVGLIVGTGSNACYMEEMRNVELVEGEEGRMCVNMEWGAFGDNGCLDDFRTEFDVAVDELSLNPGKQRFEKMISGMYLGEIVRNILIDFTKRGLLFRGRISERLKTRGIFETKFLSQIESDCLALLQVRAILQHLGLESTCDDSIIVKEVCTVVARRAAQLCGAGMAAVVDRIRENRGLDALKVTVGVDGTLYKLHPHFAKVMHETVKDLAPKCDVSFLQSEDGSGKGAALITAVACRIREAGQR

Compound | propionate concentration above which no growth was observed (C. glutamicum Cz034) | IC50 on hexokinase (HK2) (hexokinase (HK2))
CCC(=O)O [propionate] | over 8,000 mg/L | –
germicidin | – | 780 µg/mL
